Measurements reported in ChEMBL document CHEMBL4425097, “Adrenomedullin 2.0: Adjusting Key Levers for Metabolic Stability” (J Med Chem, 2016).
The source made the active and inactive calls. The calls are words filed in the database; no cut-off is given here. Where a SMILES comes first, the peptide text is derived from it. Bridges are numbered along the chain shown (N, C = ends).

Target: Adrenomedullin receptor AM1; CALCRL/RAMP2 (Homo sapiens) (UniProt O60895+Q16602)
Assay: Agonist activity at eYFP-tagged CLR/eCFP-tagged RAMP2-derived AM1 receptor (unknown origin) expressed in HEK293 cells assessed as cAMP accumulation after 3 hrs by ONE-Glo substrate-based luminescence assay
Format: functional, cell-based

| SMILES | Activity |
| --- | --- |
| CC[C@H](C)[C@H](NC(=O)[C@H](CCC(N)=O)NC(=O)[C@H](Cc1cnc[nH]1)NC(=O)[C@H](C)NC(=O)[C@H](CC(C)C)NC(=O)[C@H](CCCCN)NC(=O)[C@H](CCC(N)=O)NC(=O)[C@@H](NC(=O)[C@@H](N)[C@@H](C)O)C(C)C)C(=O)N[C@@H](Cc1ccc(O)cc1)C(=O)N[C@@H](CCC(N)=O)C(=O)N[C@@H](Cc1ccccc1)C(=O)N[C@H](C(=O)N[C@@H](CC(=O)O)C(=O)N[C@@H](CCCCN)C(=O)N[C@@H](CC(=O)O)C(=O)N[C@@H](CCCCN)C(=O)N[C@@H](CC(=O)O)C(=O)N[C@@H](CC(N)=O)C(=O)N[C@H](C(=O)N[C@@H](C)C(=O)N1CCC[C@H]1C(=O)N[C@@H](CCCNC(=N)N)C(=O)N[C@@H](CO)C(=O)N[C@@H](CCCCN)C(=O)N[C@H](C(=O)N[C@@H](CO)C(=O)N1CCC[C@H]1C(=O)N[C@@H](CCC(N)=O)C(=O)NCC(=O)N[C@@H](Cc1ccc(O)cc1)C(N)=O)[C@@H](C)CC)C(C)C)[C@@H](C)O | inactive |
| C[C@@H](O)[C@@H]1NC(=O)CNC(=O)[C@H](Cc2ccccc2)NC(=O)[C@H](CCCNC(=N)N)NC(=O)[C@@H](NC(=O)CNC(=O)CN)CSSC[C@@H](C(=O)O)NC1=O (H-GGCRFGTC-OH; disulfide 3-8) | inactive |
| CC[C@H](C)[C@H](NC(=O)[C@H](CCC(N)=O)NC(=O)[C@H](Cc1cnc[nH]1)NC(=O)[C@H](C)NC(=O)[C@H](CC(C)C)NC(=O)[C@H](CCCCN)NC(=O)[C@H](CCC(N)=O)NC(=O)[C@@H](NC(=O)[C@@H](NC(=O)[C@@H]1CSSC[C@H](NC(=O)CNC(=O)CN)C(=O)N[C@@H](CCCNC(=N)N)C(=O)N[C@@H](Cc2ccccc2)C(=O)NCC(=O)N[C@@H]([C@@H](C)O)C(=O)N1)[C@@H](C)O)C(C)C)C(=O)N[C@@H](Cc1ccc(O)cc1)C(=O)N[C@@H](CCC(N)=O)C(=O)N[C@@H](Cc1ccccc1)C(=O)N[C@H](C(=O)N[C@@H](CC(=O)O)C(=O)N[C@@H](CCCCN)C(=O)N[C@@H](CC(=O)O)C(=O)N[C@@H](CCCCN)C(=O)N[C@@H](CC(=O)O)C(=O)N[C@@H](CC(N)=O)C(=O)N[C@H](C(=O)N[C@@H](C)C(=O)N1CCC[C@H]1C(=O)N[C@@H](CCCNC(=N)N)C(=O)O)C(C)C)[C@@H](C)O (H-GGCRFGTCTVQKLAHQIYQFTDKDKDNVAPR-OH; disulfide 3-8) | inactive |
| CC[C@H](C)[C@H](NC(=O)[C@H](CCC(N)=O)NC(=O)[C@H](Cc1cnc[nH]1)NC(=O)[C@H](C)NC(=O)[C@H](CC(C)C)NC(=O)[C@H](CCCCN)NC(=O)[C@H](CCC(N)=O)NC(=O)[C@@H](NC(=O)[C@@H](NC(=O)[C@@H]1CSSC[C@H](NC(=O)CNC(=O)CN)C(=O)N[C@@H](CCCNC(=N)N)C(=O)N[C@@H](Cc2ccccc2)C(=O)NCC(=O)N[C@@H]([C@@H](C)O)C(=O)N1)[C@@H](C)O)C(C)C)C(=O)N[C@@H](Cc1ccc(O)cc1)C(=O)N[C@@H](CCC(N)=O)C(=O)N[C@@H](Cc1ccccc1)C(=O)N[C@H](C(=O)N[C@@H](CC(=O)O)C(=O)N[C@@H](CCCCN)C(=O)N[C@@H](CC(=O)O)C(=O)N[C@@H](CCCCN)C(=O)N[C@@H](CC(=O)O)C(=O)N[C@@H](CC(N)=O)C(=O)N[C@H](C(=O)N[C@@H](C)C(=O)N1CCC[C@H]1C(=O)N[C@@H](CCCNC(=N)N)C(=O)N[C@@H](CO)C(=O)O)C(C)C)[C@@H](C)O (H-GGCRFGTCTVQKLAHQIYQFTDKDKDNVAPRS-OH; disulfide 3-8) | inactive |
